Literature values as cited in PubChem BioAssay AID1259409 (Chemical Carcinogenesis Research Information System (CCRIS), 2018).

System: rodent chemically induced tumor inhibition, incidence and multiplicity
Test: CCRIS tumor inhibitor studies
Conditions: Carcinogen: 7,12-DIMETHYLBENZ[A]ANTHRACENE, 57-97-6, Dose [Inhibitor]: 0, Route [Inhibitor]: DERMAL, Species: MOUSE, Strain/Sex: SENCAR/FEMALE, Dose [Carcinogen]: 10 NMOL ONCE, Promoter: 12-O-TETRADECANOYLPHORBOL-13-ACETATE, 16561-29-8

## CCCCCCCCCCCCC/C=C/[C@@H](O)[C@@H](N)CO
0.01 UMOL IN 0.2 ML ACETONE 2/WK FOR 15 WK APPLIED 30 MIN PRIOR TO EACH PROMOTER DOSE (STUDY DURATION: 50 WK), Target Tissue: Type of Lesion: SKIN: CARCINOMA
  tumour outcome (control, treated, inhibition, significance): 87%, 77%, 11%, not significant
0.01 UMOL IN 0.2 ML ACETONE 2/WK FOR 15 WK APPLIED 30 MIN PRIOR TO EACH PROMOTER DOSE (STUDY DURATION: 50 WK), Target Tissue: Type of Lesion: SKIN: PAPILLOMA
  tumour outcome (control, treated, inhibition, significance): 94%, 88%, 6%, not significant
0.05 UMOL IN 0.2 ML ACETONE 2/WK FOR 15 WK APPLIED 30 MIN PRIOR TO EACH PROMOTER DOSE (STUDY DURATION: 50 WK), Target Tissue: Type of Lesion: SKIN: CARCINOMA
  tumour outcome (control, treated, inhibition, significance): 87%, 82%, 6%, not significant
0.05 UMOL IN 0.2 ML ACETONE 2/WK FOR 15 WK APPLIED 30 MIN PRIOR TO EACH PROMOTER DOSE (STUDY DURATION: 50 WK), Target Tissue: Type of Lesion: SKIN: PAPILLOMA
  tumour outcome (control, treated, inhibition, significance): 94%, 91%, 3%, not significant
0.5 UMOL IN 0.2 ML ACETONE 2/WK FOR 15 WK APPLIED 30 MIN PRIOR TO EACH PROMOTER DOSE (STUDY DURATION: 50 WK), Target Tissue: Type of Lesion: SKIN: CARCINOMA
  tumour outcome (control, treated, inhibition, significance): 87%, 84%, 3%, not significant
0.5 UMOL IN 0.2 ML ACETONE 2/WK FOR 15 WK APPLIED 30 MIN PRIOR TO EACH PROMOTER DOSE (STUDY DURATION: 50 WK), Target Tissue: Type of Lesion: SKIN: PAPILLOMA
  tumour outcome (control, treated, inhibition, significance): 94%, 85%, 10%, not significant
10 UMOL IN 0.2 ML ACETONE 2/WK FOR 20 WK APPLIED 30 MIN PRIOR TO EACH PROMOTER DOSE (STUDY DURATION: 50 WK), Target Tissue: Type of Lesion: SKIN: CARCINOMA
  tumour outcome (control, treated, inhibition, significance): 47%, 56%, -19%, not significant
10 UMOL IN 0.2 ML ACETONE 2/WK FOR 20 WK APPLIED 30 MIN PRIOR TO EACH PROMOTER DOSE (STUDY DURATION: 50 WK), Target Tissue: Type of Lesion: SKIN: PAPILLOMA
  tumour outcome (control, treated, inhibition, significance): 93%, 96%, -3%, not significant
